Assays:
[1] = test system: ryegrass, Italian; assay: Test A preemergence; type: in vivo, Lolium multiflorum; settings: 1000 g ai/ha, 0 to 100 scale (0 no effect, 100 complete control), 10 days
Method in brief: (§1)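 Loam/sand soil; pre-em directed soil spray at planting, post-em spray at 1–2 leaf (2–10 cm). Compound in non-phytotoxic solvent + surfactant. Greenhouse 10 d; visual injury vs untreated, 0 = no effect, 100 = complete control.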

[2] = test system: Pigweed, Redroot; assay: Test A preemergence; type: in vivo, Amaranthus retroflexus; settings: 1000 g ai/ha, 0 to 100 scale (0 no effect, 100 complete control), 10 days
Excerpt: (§2) Seeds of plant species selected from barnyardgrass (Echinochloa crusgalli), blackgrass (Alopecurus myosuroides), corn (Zea mays), foxtail, giant (giant foxtail, Setaria faberi), goosegrass (Eleusine indica), kochia (Bassia scoparia), oat, wild (wild oat, Avena fatua), pigweed, palmer (palmer amaranth, palmer pigweed, Amaranthus palmeri), Pigweed, Redroot (redroot pigweed, Amaranthus retroflexus), ragweed (common ragweed, Ambrosia artemisiifolia), ryegrass, Italian (italian ryegrass, Lolium multiflorum), soybean (Glycine max), and wheat (Triticum aestivum) were planted into a blend of loam soil and sand and treated preemergence with a directed soil spray using test chemicals formulated in a non-phytotoxic solvent mixture which included a surfactant. At the same time, plants selected from these crops and weed species and also galium (catchweed bedstraw, Galium aparine) and horseweed (Erigeron canadensis) were planted in pots containing the same blend of loam soil and sand and treated with postemergence applications of test chemicals formulated in the same manner. Plants ranged in height from 2 to 10 cm and were in the one- to two-leaf stage for the postemergence treatment. Treated plants and untreated controls were maintained in a greenhouse for 10 days, after which time all treated plants were compared to untreated controls and visually evaluated for injury. Plant response ratings, summarized in Table A, are based on a 0 to 100 scale where 0 is no effect and 100 is complete control. A dash (-) response means no test result.

[3] = test system: kochia; assay: Test A preemergence; type: in vivo, Bassia scoparia; settings: 1000 g ai/ha, 0 to 100 scale (0 no effect, 100 complete control), 10 days
Method in brief: as §1

[4] = test system: foxtail, giant; assay: Test A preemergence; type: in vivo, Setaria faberi; settings: 1000 g ai/ha, 0 to 100 scale (0 no effect, 100 complete control), 10 days
Method in brief: as §1

[5] = test system: ragweed; assay: Test A preemergence; type: in vivo, Ambrosia artemisiifolia; settings: 1000 g ai/ha, 0 to 100 scale (0 no effect, 100 complete control), 10 days
Method in brief: as §1

[6] = test system: barnyardgrass; assay: Test A preemergence; type: in vivo, Echinochloa crusgalli; settings: 1000 g ai/ha, 0 to 100 scale (0 no effect, 100 complete control), 10 days
Method in brief: as §1

[7] = test system: ducksalad; assay: Test B flooded paddy test; type: in vivo, Heteranthera limosa; settings: 250 g ai/ha, Flood, 13 days, 0 to 100 scale (0 no effect, 100 complete control)
Method in brief: (§3)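 Flooded to 3 cm at treatment time, 2-leaf plants got the test compound applied straight into the paddy water. They then stayed under constant flood in a greenhouse for 13 days. Ratings used a 0 to 100 visual scale.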

[8] = test system: sedge, umbrella; assay: Test B flooded paddy test; type: in vivo, Cyperus difformis; settings: 250 g ai/ha, Flood, 13 days, 0 to 100 scale (0 no effect, 100 complete control)
Method in brief: as §3

[9] = test system: barnyardgrass; assay: Test B flooded paddy test; type: in vivo, Echinochloa crus-galli; settings: 250 g ai/ha, Flood, 13 days, 0 to 100 scale (0 no effect, 100 complete control)
Method in brief: as §3

[10] = test system: rice; assay: Test B flooded paddy test; type: in vivo, Oryza sativa; settings: 250 g ai/ha, Flood, 13 days, 0 to 100 scale (0 no effect, 100 complete control)
Method in brief: as §3

[11] = test system: Pigweed, Redroot; assay: Test A postemergence; type: in vivo, Amaranthus retroflexus; settings: 1000 g ai/ha, Postemergence; 0 to 100 scale
Excerpt: as §2

[12] = test system: foxtail, giant; assay: Test A postemergence; type: in vivo, Setaria faberi; settings: 1000 g ai/ha, Postemergence; 0 to 100 scale
Method in brief: as §1

[13] = test system: kochia; assay: Test A postemergence; type: in vivo, Bassia scoparia; settings: 1000 g ai/ha, Postemergence; 0 to 100 scale
Method in brief: as §1

[14] = test system: barnyardgrass; assay: Test A postemergence; type: in vivo, Echinochloa crusgalli; settings: 1000 g ai/ha, Postemergence; 0 to 100 scale
Method in brief: as §1

[15] = test system: wheat; assay: Test A postemergence; type: in vivo, Triticum aestivum; settings: 1000 g ai/ha, Postemergence; 0 to 100 scale
Method in brief: as §1

[16] = test system: corn; assay: Test A postemergence; type: in vivo, Zea mays; settings: 1000 g ai/ha, Postemergence; 0 to 100 scale
Method in brief: as §1

[17] = test system: ragweed; assay: Test A postemergence; type: in vivo, Ambrosia artemisiifolia; settings: 1000 g ai/ha, Postemergence; 0 to 100 scale
Method in brief: as §1

[18] = test system: ryegrass, Italian; assay: Test A postemergence; type: in vivo, Lolium multiflorum; settings: 1000 g ai/ha, Postemergence; 0 to 100 scale
Method in brief: as §1

[19] = test system: blackgrass; assay: Test A postemergence; type: in vivo, Alopecurus myosuroides; settings: 1000 g ai/ha, Postemergence; 0 to 100 scale
Method in brief: as §1

Compound	Plant response rating, Ryegrass, Italian [1]	Plant response rating, Pigweed, Redroot [2]	Plant response rating, Kochia [3]	Plant response rating, Foxtail, Giant [4]	Plant response rating, Ragweed [5]	Plant response rating, Barnyardgrass [6]	Plant response rating, Ducksalad [7]	Plant response rating, Sedge, Umbrella [8]	Plant response rating, Barnyardgrass [9]	Plant response rating, Rice [10]	Plant response rating, Pigweed, Redroot [11]	Plant response rating, Foxtail, Giant [12]	Plant response rating, Kochia [13]	Plant response rating, Barnyardgrass [14]	Plant response rating, Wheat [15]	Plant response rating, Corn [16]	Plant response rating, Ragweed [17]	Plant response rating, Ryegrass, Italian [18]	Plant response rating, Blackgrass [19]
CCC1CN(C(=O)c2ccnc(-n3cncn3)c2)c2cccc(Cl)c2O1 (single isomer, unassigned) [Compound 4]	0	0	0	0	0	0	–	–	–	–	–	–	–	–	–	–	–	–	–
CCC1CN(C(=O)c2ccnc(-n3cncn3)c2)c2cccc(Cl)c2O1 (single isomer, unassigned) [Compound 5]	80	80	30	100	0	70	35	0	25	0	–	–	–	–	–	–	–	–	–
CC1CN(C(=O)c2ccnc(-n3cncn3)c2)c2cccc(Cl)c2O1 (stereo not drawn) [Compound 1]	90	40	40	100	80	80	0	0	0	0	–	–	–	–	–	–	–	–	–
CCCC1CN(C(=O)c2ccnc(-n3cncn3)c2)c2cccc(Cl)c2O1 (stereo not drawn) [Compound 2]	60	20	0	100	0	60	–	–	–	–	–	–	–	–	–	–	–	–	–
CC(C)C1CN(C(=O)c2ccnc(-n3cncn3)c2)c2cccc(Cl)c2O1 (stereo not drawn) [Compound 3]	0	0	0	0	0	0	–	–	–	–	–	–	–	–	–	–	–	–	–
CC1CN(C(=O)c2ccnc(-n3cncn3)c2)c2cccc(Cl)c2O1 (stereo not drawn) [Compound 9]	0	0	0	0	0	0	–	–	–	–	–	–	–	–	–	–	–	–	–
CC1CN(C(=O)c2ccnc(-n3cncn3)c2)c2cccc(Cl)c2O1 (stereo not drawn) [Compound 10]	80	40	30	100	80	90	0	0	0	0	–	–	–	–	–	–	–	–	–
CCC1CN(C(=O)c2ccnc(-n3cncn3)c2)c2cccc(C)c2O1 (stereo not drawn) [Compound 11]	50	90	0	100	0	30	–	–	–	–	–	–	–	–	–	–	–	–	–
CCC1CN(C(=O)c2ccnc(-n3cncn3)c2)c2cc(Cl)ccc2O1 (stereo not drawn) [Compound 12]	0	0	0	20	0	0	–	–	–	–	–	–	–	–	–	–	–	–	–
CCC1CN(C(=O)c2ccnc(-n3cncn3)c2)c2cccc(Br)c2O1 (stereo not drawn) [Compound 13]	30	50	60	90	0	0	–	–	–	–	–	–	–	–	–	–	–	–	–
CCC1CN(C(=O)c2ccnc(-n3cncn3)c2)c2c(Cl)cccc2O1 (stereo not drawn) [Compound 14]	20	10	30	30	0	0	–	–	–	–	–	–	–	–	–	–	–	–	–
CCC1CN(C(=O)c2ccnc(-n3cncn3)c2)c2cccc(F)c2O1 (stereo not drawn) [Compound 15]	60	90	60	100	0	60	–	–	–	–	–	–	–	–	–	–	–	–	–
CCC1CN(C(=O)c2ccnc(-n3cncn3)c2)c2ccc(Cl)cc2O1 (stereo not drawn) [Compound 16]	0	20	20	0	0	0	–	–	–	–	–	–	–	–	–	–	–	–	–
CC1CN(C(=O)c2cccc(-n3cncn3)c2)c2ccc(F)cc2O1 (stereo not drawn) [Compound 23]	30	0	0	50	0	30	–	–	–	–	0	10	10	10	20	30	20	0	30
CC1CN(C(=O)c2cccc(-n3cncn3)c2)c2cc(F)ccc2O1 (stereo not drawn) [Compound 24]	100	0	0	30	0	50	–	–	–	–	0	50	10	30	30	10	0	60	60
C=Cc1cccc2c1OC(C)CN2C(=O)c1cccc(-n2cncn2)c1 (stereo not drawn) [Compound 26]	0	0	0	0	0	0	–	–	–	–	0	0	0	0	0	0	0	0	0
CC1CN(C(=O)c2ccnc(-n3cncn3)c2)c2ccccc2O1 (stereo not drawn) [Compounds 8]	40	10	50	90	0	0	–	–	–	–	–	–	–	–	–	–	–	–	–

— patent US20260262643A1, “HERBICIDAL BENZOXAZINES” (FMC CORPORATION, priority 2022, published 2026)
